Test results: PMC5216056 (Nature Communications, 2017)
Several values for one entry are separate records, joined by “and”; a condition that tells them apart may be missing. Equal entries are not always repeated. Where two headings read alike, the source gives them in different places.

What was measured:
hCB1R [1] = biological target: T1, hCB1R (Homo sapiens, UniProt P21554); test: biochemical; format: binding
T1 construct: host or cells: CHO

mCB1R [2] = biological target: T2, mCB1R (Mus musculus, UniProt P47746); test: biochemical; format: binding
T2 construct: from tissue; host or cells: brain of male C57BL/6J mice
T2 sequence (P47746 whole entry): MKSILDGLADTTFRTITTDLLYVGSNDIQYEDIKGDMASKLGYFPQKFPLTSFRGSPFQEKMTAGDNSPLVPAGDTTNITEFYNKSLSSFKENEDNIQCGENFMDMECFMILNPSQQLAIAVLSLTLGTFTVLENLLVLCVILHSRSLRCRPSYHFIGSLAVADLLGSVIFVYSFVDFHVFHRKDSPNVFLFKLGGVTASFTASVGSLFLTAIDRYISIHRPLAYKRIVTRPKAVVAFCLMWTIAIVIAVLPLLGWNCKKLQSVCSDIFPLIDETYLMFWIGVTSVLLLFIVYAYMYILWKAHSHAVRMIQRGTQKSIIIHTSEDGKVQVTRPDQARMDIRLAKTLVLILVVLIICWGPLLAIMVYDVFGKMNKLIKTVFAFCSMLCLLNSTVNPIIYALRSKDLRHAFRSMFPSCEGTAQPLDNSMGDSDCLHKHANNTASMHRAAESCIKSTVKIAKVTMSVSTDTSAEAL

hCB1R [3] = biological target: T1, hCB1R; test: cell-based
mCB1R [4] = biological target: T2, mCB1R; test: biochemical
hCB1R [5] = biological target: T1, hCB1R; test: cell-based; format: cell-based; settings: read-out: Emax ± SEM pERK hCB1R
hCB1R [6] = biological target: T1, hCB1R; test: cell-based; format: cell-based; settings: AtT20, read-out: Emax ± SEM GIRK hCB1R
[7] = test system: AEA reuptake in HaCaT cells; test: cells; format: cell-based, human; settings: Homo sapiens, HaCaT
C57BL6/J mice [8] = test: Triad assay: catalepsy; format: in vivo, mouse; settings: i.p., cumulative dosing, mice
C57BL6/J mice [9] = test: Triad assay: antinociception; format: in vivo, mouse; settings: i.p., cumulative dosing, mice
C57BL6/J mice [10] = test: Triad assay: hypothermia; format: in vivo, mouse; settings: i.p., cumulative dosing, mice
physchem = settings: pH 6.5, aqueous buffer, thermodynamic from solid
in vitro [11] = settings: both, human, microsomes, pH 7.4
in vitro [12] = settings: male, C57BL/6J, mouse, microsomes, pH 7.4
mCB2R [13] = biological target: T3, mCB2R (Mus musculus, UniProt P47936); test: biochemical; format: binding; parameters: from tissue; host or cells: spleen of male C57BL/6J mice; settings: mouse spleen membranes; read-out: pKi ± SEM mCB2R (converted)
T3 sequence (P47936 whole entry): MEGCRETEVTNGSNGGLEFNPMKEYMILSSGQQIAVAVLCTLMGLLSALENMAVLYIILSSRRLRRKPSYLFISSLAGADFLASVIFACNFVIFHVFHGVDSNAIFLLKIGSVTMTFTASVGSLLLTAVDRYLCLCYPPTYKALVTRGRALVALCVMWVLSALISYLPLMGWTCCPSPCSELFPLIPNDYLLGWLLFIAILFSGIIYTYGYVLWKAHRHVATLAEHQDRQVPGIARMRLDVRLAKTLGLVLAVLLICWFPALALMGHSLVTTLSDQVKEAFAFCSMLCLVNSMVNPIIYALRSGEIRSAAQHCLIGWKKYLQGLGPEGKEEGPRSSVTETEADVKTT

mCB2R [14] = biological target: T3, mCB2R; test: biochemical; format: biochemical; parameters: from tissue; host or cells: spleen of male C57BL/6J mice
hCB2R [15] = biological target: T4, hCB2R (Homo sapiens, UniProt P34972); test: cell-based; format: cell-based; parameters: expressed in transfected cells; host or cells: Flp-In-293 (Invitrogen #R750-07), pcDNA5/FRT; settings: read-out: Emax ± SEM cAMP hCB2R
T4 sequence (P34972 whole entry): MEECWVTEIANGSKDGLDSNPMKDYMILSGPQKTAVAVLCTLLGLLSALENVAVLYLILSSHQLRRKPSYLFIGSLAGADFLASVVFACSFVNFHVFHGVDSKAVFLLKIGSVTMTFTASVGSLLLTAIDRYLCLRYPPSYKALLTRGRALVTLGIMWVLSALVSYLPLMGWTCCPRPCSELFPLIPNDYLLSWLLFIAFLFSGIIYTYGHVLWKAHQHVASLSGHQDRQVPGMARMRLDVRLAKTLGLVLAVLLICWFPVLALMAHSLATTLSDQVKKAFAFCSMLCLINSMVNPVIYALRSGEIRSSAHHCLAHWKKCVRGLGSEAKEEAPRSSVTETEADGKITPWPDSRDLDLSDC

hCB2R [16] = biological target: T4, hCB2R; test: cell-based; format: cell-based; parameters: expressed in transfected cells; host or cells: Flp-In-293 (Invitrogen #R750-07), pcDNA5/FRT; settings: read-out: Emax ± SEM pERK hCB2R
hCB2R [17] = biological target: T4, hCB2R; test: cell-based; format: cell-based; parameters: expressed in transfected cells; host or cells: Flp-In-293 (Invitrogen #R750-07), pcDNA5/FRT; settings: AtT20, read-out: Emax ± SEM GIRK hCB2R
hCB2R [18] = biological target: T4, hCB2R; parameters: expressed in transfected cells; host or cells: Flp-In-293 (Invitrogen #R750-07), pcDNA5/FRT

T1 sequence (P21554 whole entry): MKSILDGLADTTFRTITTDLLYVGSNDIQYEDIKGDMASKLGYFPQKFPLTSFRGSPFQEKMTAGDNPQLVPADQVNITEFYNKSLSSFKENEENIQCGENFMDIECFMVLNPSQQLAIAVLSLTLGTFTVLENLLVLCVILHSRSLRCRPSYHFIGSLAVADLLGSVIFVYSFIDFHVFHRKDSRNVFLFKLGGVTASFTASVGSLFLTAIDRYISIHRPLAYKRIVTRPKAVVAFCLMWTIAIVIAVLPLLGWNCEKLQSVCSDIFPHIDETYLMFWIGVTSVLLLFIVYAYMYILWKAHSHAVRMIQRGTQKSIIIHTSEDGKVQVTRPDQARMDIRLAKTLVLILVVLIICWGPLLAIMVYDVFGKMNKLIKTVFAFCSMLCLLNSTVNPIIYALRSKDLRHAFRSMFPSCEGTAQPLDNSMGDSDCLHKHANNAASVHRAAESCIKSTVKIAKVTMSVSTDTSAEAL

SMILES: CCCCCCC(C)(C)c1cc(O)c2c(c1)OC(C)(C)[C@@H]1CC=C(CO)C[C@@H]21 [HU210]
- Ki (hCB1R [1]): 0.282 nM
- Ki (mCB1R [2]): 1.1 nM
- EC50 (hCB1R [3]; pEC50 ± SEM cAMP hCB1R): 0.263 nM
- Emax (hCB1R [3]; read-out: Emax ± SEM cAMP hCB1R): 104 ± 3%
- EC50 (mCB1R [4]; pEC50 ± SEM cAMP mCB1R): 0.0933 nM
- Emax (mCB1R [4]; read-out: Emax cAMP mCB1R): 65%
- Emax (hCB1R [5]): 96 ± 7%
- Emax (hCB1R [6]): 97 ± 8%
- inhibition at 10 µM ([7]; read-out: AEA reuptake % inhibition, effect at 10 µM, HaCaT cells, 10 µM (values marked *)): 44%
- IC50 ([7]; read-out: AEA reuptake IC50 (95% CI) HaCaT cells): > 5000 nM
- catalepsy ED50 (95% CL) (C57BL6/J mice [8]): 0.19 (0.14–0.27) mg kg^−1
- antinociception ED50 (95% CL) (C57BL6/J mice [9]): 0.41 (0.31–0.54) mg kg^−1
- hypothermia ED50 (95% CL) (C57BL6/J mice [10]): 0.35 (0.30–0.41) mg kg^−1
- Pct acceptor (PAMPA): 0%
- Pct donor (PAMPA): 23%
- Pct membrane (PAMPA, compound found in membranes): 76%
- Pampa Peff (membrane permeation coefficient): 0.22 cm/s*10-6
- solubility kinetic (physchem): < 0.2 µg/mL and < 0.5 µM
- microsomal CLint (in vitro [11]): 25 µL/min/mg
- microsomal CLint (in vitro [12]): 33 µL/min/mg
- Ki (mCB2R [13]): 0.537 nM
- EC50 (mCB2R [14]; mouse spleen, read-out: pEC50 ± SEM cAMP mCB2R (converted)): 6.61 nM
- Emax (mCB2R [14]; read-out: Emax cAMP mCB2R): 68%
- Emax (hCB2R [15]): 94 ± 0.1%
- Emax (hCB2R [16]): 105 ± 10%
- Emax (hCB2R [17]): 105 ± 4%
- LogR GIRK (hCB2R [18]): 7.19
- LogR pERK (hCB2R [18]): 8.22
- RE GIRK (hCB2R [18]): 0.21
- RE pERK (hCB2R [18]): 0.15
- pERK-GIRK bias factor (BF) (hCB2R [18]): 0.71
- pERK-GIRK ΔΔlogR (hCB2R [18]): -0.15
- ΔLogR GIRK (hCB2R [18]): -0.67
- ΔLogR pERK (hCB2R [18]): -0.82
